The numbers were not newly measured in patent US20110189283A1, “APPETISING MEDICAMENTS FOR ORAL ADMINISTRATION IN SOLID FORM FOR PREVENTION AND/OR TREATMENT OF CARDIAC INSUFFICIENCY IN ANIMALS” (VIRBAC, priority 2008, published 2011), which cites them from elsewhere.

The conditions of data set [1]: administered during or shortly after feeding.
In data set [2] the test system is phosphodiesterase type III. Particulars: after oral administration.

SMILES strings stand for the structures.

As to `COc1ccc(-c2nc3ccc(C4=NNC(=O)CC4C)cc3[nH]2)cc1` (stereo not drawn) [pimobendan, 4,5-dihydro-6-[2-(4-methoxyphenyl)-1H-benzimidazol-5-yl]-5-methyl-3(2H)-pyridazinone], in data set [1], the “effect of feeding on bioavailability” value is on record as “considerably reduced”. In data set [2], the “duration of positive inotropic effects” value was 8 h.

For the compound `CC(=O)S[C@@H]1CC2=CC(=O)CC[C@]2(C)[C@H]2CC[C@@]3(C)[C@@H](CC[C@@]34CCC(=O)O4)[C@H]12` [spironolactone], for the setting “dogs”, the “dose administered found in the feces” value was 70% and the “dose administered found in the urine” value is given as 20%. In addition, the “time to state of equilibrium” value (multiple oral administrations) was 2 days. Where the note is “multiple oral administrations of 2 mg per kg for 10 consecutive days”, the accumulation entry was “no accumulation is observed”. Moreover, the “effect of simultaneous taking of foods on bioavailability” value (oral) is on record as “considerably increases”. For the same compound, under “oral administration of 2 to 4 mg/kg”, the “absorption versus amount administered” value is “increases linearly”. Also, the “metabolism by the liver” value (to 7α-thiomethylspironolactone and canrenone, dogs) was “rapidly and completely metabolized”.
